Assay results as given in patent US10946053B2, “Composition containing mixed extract of mulberry and Poria cocos bark for preventing, improving or treating neurodegenerative disorders” (NeuroBo Pharmaceuticals, Inc., priority 2014, dated 2021).

Legend:
[1] = tested on: NeuN, a neural cell marker; assay: Immunohistochemical staining with NeuN in hippocampus, Aβ infusion model (FIG. 1); format: in vivo, ICR mice
Experimental: (§1) Six-week-old ICR mice were used in the experiment. The animals were anesthetized, fixed in a stereotaxic apparatus (Stoelting) and injected with 3 μl of vehicle (artificial CSF) or Aβ42 for 6 minutes using a Hamilton micro syringe (fitted with a 26-gauge needle).
(§2) Animals treated with Aβ42 were randomly divided into experimental groups. From 2 days after administration of Aβ42, the experimental drug and the positive control drug were administered once a day for 11 days.
For immunohistochemical staining, the Aβ infusion animal described in Experimental Example 1-1 was perfused with 1×PBS (phosphate buffered saline), fixed with 4% paraformaldehyde, and brain was extracted. This was fixed in the same solution for one day and stored in a 30% sucrose solution and the solution was changed every two days until frozen at […] After that, brain tissue was frozen sufficiently at −20° C. by dropping OCT (optimal cutting temperature) compound in a cryostat, and then made into a 30 μm-thick section, and stored at 4° C. in a preservative solution. Immunohistochemical staining was performed with the hippocampus portion. […]

[2] = tested on: Scopolamine Induced Memory Impairment Model; assay: Y-maze test, scopolamine model; format: in vivo, ICR mice; settings: extracts 100 mg/kg, Donepezil 1 mg/kg
Experimental: (§3) Six-week-old ICR mice were used for the experiment and each experimental group consisted of 8 animals.
(§4) Normal animals were injected with the same amount of physiological saline. Behavioral studies were performed after 30 minutes of scopolamine administration.
(§5) The lyophilized drug, comparative drug and control drug were suspended in 3% HPMC aqueous solution, and all the drugs were prepared on the day of the experiment.
(§6) The Y-maze experiment was conducted to investigate the effect of short-term memory. The animals were placed on one arm of the Y-maze and allowed to move freely for 8 minutes. Spontaneous alternation and total number of entries were measured. When the animals were consecutively entered into three arms, they were defined as alternation entry, and the ratio was calculated by the following equation 1. Spontaneous alternation ratio (%)=[(number of changes)/(total number of arm entry−2)]×100 [Equation 1]

[3] = tested on: Scopolamine Induced Memory Impairment Model; assay: Passive avoidance task, scopolamine induced memory impairment model; format: in vivo, ICR mice; settings: scopolamine 1 mg/kg i.p., oral, extracts 100 mg/kg, Donepezil 1 mg/kg
Experimental: as §3, §4, §5
Passive avoidance experiments were performed in two independently separated bright and dark square boxes. Bright areas (20×20×20 cm) were illuminated with 50 W incandescent lamps. Light and dark areas (20×20×20 cm) were spaced 1 cm apart and 2 mm stainless steel rods were installed.
In the habituation phase, the two sections were separated by a guillotine door (5×5 cm), and the guillotine door was opened after 30 seconds after placing the experimental animals in the light section. The animals were allowed to freely navigate. When they reached the dark area, the guillotine door was closed and the animals were taken out after 3 seconds.
(§7) Acquisition trials were conducted 24 hours later. […] The time that the animals entered the dark zone was measured.
(§8) After performing the acquisition trials and giving a 24-hour rest period, the experimental animals were placed in a bright area for measuring the retention trial and the time until entering the dark area was measured. […]

Aβ Infusion Model (Aβ42) [4] = assay: Y-maze test, Aβ42 administration model; format: in vivo, ICR mice; settings: extracts 100 mg/kg, Donepezil 1 mg/kg
Experimental: as §1, §2, §5, §6

human Tau [pS199] = assay: Phosphorylated tau in neuronal cell line (ELISA), Aβ42 treated; format: cell-based; settings: Donepezil 10 μM
Experimental: Phosphorylated tau levels were measured in order to confirm the inhibitory effect of crude herbal extracts on tau hyper-phosphorylation. […] The phosphorylated tau was measured using human Tau [pS199] enzyme-linked immunosorbent assay (ELISA) KIT purchased from Invitrogen.

Aβ Infusion Model (Aβ42) [5] = assay: Passive avoidance task, Aβ42 administration model; format: in vivo, ICR mice; settings: Aβ42 injected, once a day for 11 days, extracts 100 mg/kg, Donepezil 1 mg/kg
Experimental: as §1, §2, §5
Passive avoidance experiments were performed in two independently separated bright and dark square boxes. Bright areas (20×20×20 cm) were illuminated with 50 W incandescent lamps. Light and dark areas (20×20×20 cm) were spaced 1 cm apart and 2 mm stainless steel rods were installed. […]
as §7, §8

beta-nerve growth factor = assay: NGF level measurement in nerve cell line (ELISA); format: cell-based, human; settings: extracts 10 μg/ml, Donepezil 10 μM
Experimental: NGF levels were measured in order to determine the mechanism of cognitive improvement of the herbal mixed extracts. […] NGF levels were measured using a beta-nerve growth factor human enzyme-linked immunosorbent assay (ELISA) KIT purchased from Abcam.

Aβ Infusion Model (Aβ42) [6] = assay: Novel object recognition (NOR) task, Aβ42 administration model; format: in vivo, ICR mice; settings: extracts 100 mg/kg, Donepezil 1 mg/kg
Experimental: as §5
(§9) Inside a black box of 45 cm width, 45 cm length, 50 cm height, two plastic objects of the same size but different shapes were placed. The experimental animals were allowed to move freely for 8 minutes and the time spent on each object was measured (training session) 24 hours later, the experimental animals were placed in a box with one familiar object and one new object in the training session and the time spent in each object was measured (test session). The recorded values were calculated using the following equation (2), which is expressed as a recognition result of a new object. Recognition rate of new objects (%)=Time spent on new objects/(Time spent on new objects+Time spent on experienced objects)×100 [Equation 2]

[7] = tested on: Scopolamine Induced Memory Impairment Model; assay: Novel object recognition (NOR) task, scopolamine model; format: in vivo, ICR mice; settings: extracts 100 mg/kg, Donepezil 1 mg/kg, test session
Experimental: as §3, §4, §5, §9

SMILES: COc1cc2c(cc1OC)C(=O)C(CC1CCN(Cc3ccccc3)CC1)C2 (stereo not shown) [Donepezil]
- NeuN expression / neuroprotective effect (FIG. 1), in words [1]: failed to show neuroprotective effects
- spontaneous alternation (%) [2]: 67.2%
- Total number of entries ([2]; 8 minutes): 64
- True enter ([2]; 8 minutes): 43
- Retention time ([3]; retention trial 24 h after acquisition): 243.5
- Acquisition time ([3]; time to enter dark area, acquisition trial): 77.4
- spontaneous alternation (%) (Aβ Infusion Model (Aβ42) [4]): 70.5%
- Total number of entries (Aβ Infusion Model (Aβ42) [4]; 8 minutes): 61
- True enter (Aβ Infusion Model (Aβ42) [4]; 8 minutes): 43
- inhibitory effect on tau phosphorylation, in words (human Tau [pS199]; SH-SY5Y cells, Aβ42): did not show any inhibitory effect
- Phosphorus tau pg/g protein (human Tau [pS199]; differentiated SH-SY5Y cells, Aβ42 48 hours, extracts 10 μg/ml): 1699 pg/g protein
- Acquisition time (Aβ Infusion Model (Aβ42) [5]; acquisition trial): 78.4
- Retention time (Aβ Infusion Model (Aβ42) [5]; retention trial): 244.2
- effect of promoting NGF production in nerve cell line, in words (beta-nerve growth factor; SH-SY5Y cells): did not show the effect of promoting NGF production
- NGF (pg/g protein) (beta-nerve growth factor; differentiated SH-SY5Y cells): 421 pg/g protein
- Total object recognition on time (Aβ Infusion Model (Aβ42) [6]): 26.8
- Familiar object recognition time [7]: 7.9
- New object recognition time [7]: 12.9
- Total object recognition time [7]: 20.8
